Experimental data as given in PMC3070621, “Generation of novel cationic antimicrobial peptides from natural non-antimicrobial sequences by acid-amide substitution” (Annals of Clinical Microbiology and Antimicrobials, 2011).
No end group written: not given here.

What was measured:
[1] = test system: Bacillus subtilis IFO3134; format: cell-based; conditions: IFO3134, 2 h, pH 7.5
Method: (§1) Microbicidal assay was performed as previously described. A low ionic strength condition was used to detect bactericidal activity with higher sensitivity. Briefly, each microbial strain in the mid-exponential phase was suspended in 10 mM Tris/HCl, pH 7.5. The microbial suspension was mixed with peptides. After 2 h incubation, the suspension was diluted 1,000 times and inoculated on to plates of IFO702 medium (1% polypeptone, 0.2% yeast extract, 0.1% MgSO4 7H2O, 2% agar). The numbers of colonies were counted, and a plot of peptide concentration vs colony number was created.

Escherichia coli JM109 = format: cell-based; conditions: JM109, 2 h, pH 7.5
Method: as §1

[2] = test system: Micrococcus luteus IFO12708; format: cell-based; conditions: IFO12708, 2 h, pH 7.5
Method: as §1

[3] = test system: Pseudomonas aeruginosa IFO3899; format: cell-based; conditions: IFO3899, 2 h, pH 7.5
Method: as §1

[4] = test system: Saccharomyces cerevisiae MAFF113011; format: cell-based; conditions: MAFF113011, 2 h, pH 7.5
Method: as §1

[5] = test system: Salmonella typhimurium IFO13245; format: cell-based; conditions: murium IFO13245, 2 h, pH 7.5
Method: as §1

[6] = test system: Serratia marcescens IFO3736; format: cell-based; conditions: IFO3736, 2 h, pH 7.5
Method: as §1

[7] = test system: Staphylococcus aureus IFO12732; format: cell-based; conditions: IFO12732, 2 h, pH 7.5
Method: as §1

[8] = cited from earlier work
Human erythrocytes = test: Hemolytic assay; format: cell-based; conditions: peptide 300 μg/mL, 10 mM Tris-HCl pH 7.5 with 308 mM sucrose, 0.5 h, A540, pure water = 100% lysis
Method: Hemolytic assay was performed as previously described. Human erythrocytes were used. Hemolysis was estimated as the leakage of haemoglobin. The erythrocytes were washed and resuspended in 10 mM Tris-HCl, pH 7.5, containing 308 mM sucrose. The erythrocyte suspension was diluted by 30%. The diluted suspension was mixed with the equal volume of peptide solution dissolved in the same buffer. After 0.5 h of incubation, the test suspension was centrifuged to remove the intact erythrocytes. The supernatant was diluted, and A540 was measured. The hemolysis caused by pure water was defined as 100% lysis.

[9] = Liposome disruption assay (calcein release), PG/CL liposomes; conditions: PG:CL = 3:1 (molar), 10 mM Tris-HCl pH 7.5 with 350 mM sucrose, room temperature, three independent trials
Method: (§2) Membrane-disrupting activity was estimated by liposome disruption assay. Bovine heart phosphatidylglycerol (PG), egg cardiolipin (CL), and egg phosphatidylcholine (PC) were purchased from Avanti Polar Lipids, Inc., Alabama, USA. A lipid film was prepared by rotary evaporation of lipid solution (1 mg lipid in 1 ml chloroform). The lipid film was hydrated with 1 ml of 10 mM Tris-HCl buffer (pH 7.5) containing 75 mM calcein. Lipid dispersions were sonicated and subjected to five freeze-thaw cycles. Non-trapped calcein was removed by gel filtration on a Sephacryl S-300 spin column (GE Healthcare Bio-Science Corp., Piscataway, NJ, USA) equilibrated with 10 mM Tris-HCl (pH 7.5) containing 175 mM NaCl and 1 mM EDTA. These calcein-entrapped liposomes were diluted at a ratio of 1:1000 in 10 mM Tris-HCl (pH 7.5) containing 350 mM sucrose. Calcein release after membrane disruption was evaluated by measuring fluorescence intensity at 515 nm with excitation at 492 nm on a RF-5300PC spectrofluorometer at room temperature.
Figure 4 Membrane-disruption against acidic-liposomes. Calcein release from vesicles consisting of PG:CL = 3:1 was measured. Each point was obtained from three independent trials using a single preparation of liposomes and peptides, and represents the mean ± standard error of the mean.

[10] = Liposome disruption assay (calcein release), PC liposomes
Method: as §2

[11] = Precipitation in the presence of PG/CL liposomes (CD sample conditions); format: physicochemical; conditions: peptide 100 μg/ml, PG/CL liposome 500 μg/ml, 10 mM Tris-HCl pH 7.5, 20°C
Method: CD spectra were recorded on a J-720 spectropolarimeter (JASCO, Tokyo, Japan) in the far-ultraviolet (UV) range from 190 to 260 nm using a 0.1 cm thermostatted cell at 25°C. Peptides were dissolved in 10 mM Tris-HCl (pH 7.5) containing tri-fluoroethanol (TFE) at 0-100%. For measurement under the presence of liposomes, peptides were dissolved at 100 μg/ml containing 500 μg/ml liposomes at 20°C.
Furthermore, membrane-disruptive activities against liposomes were also estimated. A liposome dye-leakage assay was used. […] In contrast, NP2P and NP3P damaged the PG/CL liposome membrane at ≥0.3 μg/ml (Figure 4). The concentration was equal or lower than MBCs against Gram-positive bacteria, which were measured under identical ionic conditions. […] Since CD spectra could not be measured, the conformation of NP3P in the presence of PG/CL membrane remains unclear.

Row | Substance | MBC [1] | MBC (Escherichia coli JM109) | MBC [2] | MBC [3] | MBC [4] | MBC [5] | MBC [6] | MBC [7] | enhancer activity for membrane-disruptive antimicrobial peptides [8] | Hemolytic activity (%) (Human erythrocytes) | concentration causing dye-leakage (membrane damage) of PG/CL liposomes [9] [µg/mL] | concentration causing dye-leakage (membrane disruption) of PC liposomes ([10]; PC only liposomes, 10 mM Tris-HCl pH 7.5 with 350 mM sucrose, room temperature) [µg/mL] | precipitation in the presence of PG/CL liposome [11] | effect on PC liposome membrane (in words) ([10]; PC liposomes, data not shown)
1 | HRRSVAHQEEASLHVKTDELPSPDTVREQL-OH [P4P] | >300 (>300) μg/ml | >300 (>300) μg/ml | >300 (>300) μg/ml | >300 (>300) μg/ml | >300 (>300) μg/ml | >300 (>300) μg/ml | >300 (>300) μg/ml | >300 (>300) μg/ml |  |  |  |  |  | 
2 | HRRSVAHQQQASLHVKTNQLPSPNTVRQQL-OH [NP4P] | >300 (>300) μg/ml | >300 (>300) μg/ml | >300 (>300) μg/ml | >300 (>300) μg/ml | >300 (>300) μg/ml | >300 (>300) μg/ml | >300 (>300) μg/ml | >300 (>300) μg/ml | enhancer activity for membrane-disruptive antimicrobial peptides was detected |  |  |  |  | 
3 | RRRFVAEQDAIHSRVSREVPTLSDSV-OH [P1P] | > 300 µg/mL | > 300 µg/mL | > 300 µg/mL | > 300 µg/mL | > 300 µg/mL | > 300 µg/mL | >300 (>300) μg/ml | > 300 µg/mL |  | 0.00 ± 0.00 |  |  |  | 
4 | RRRFVAQQNAIHSRVSRQVPTLSNSV-OH [NP1P] | 30 µg/mL | 10 µg/mL | 30 µg/mL | 20 µg/mL | 200 µg/mL | 30 µg/mL | >300 (>300) μg/ml | 10 µg/mL |  | 1.32 ± 0.02 | > 200 | > 200 |  | 
5 | RRRSVGEEDAIPSHIEVNKFFLRKPAKEHI-OH [P3P] | > 300 µg/mL | > 300 µg/mL | 200 µg/mL | 70 µg/mL | > 300 µg/mL | > 300 µg/mL | >300 (>300) μg/ml | > 300 µg/mL |  | 1.69 ± 0.05 |  |  | not affected | 
6 | RRRSVGQQNAIPSHIQVNKFFLRKPAKQHI-OH [NP3P] | 20 µg/mL | 7 µg/mL | 10 µg/mL | 20 µg/mL | 7 µg/mL | 20 µg/mL | >300 (>300) μg/ml | 5 µg/mL |  | 2.61 ± 0.02 | ≥ 0.3 |  | precipitated | did not affect PC liposome membrane
